Reference: patent US12180207B2 (ARRAY BIOPHARMA INC., priority 2018, dated 2024)

Legend:
[1] = target: HEK-293 cells transfected with dox-inducible human wild type FGFR2 (Homo sapiens (Human), UniProt P21802); assay: FGFR2 pFGFR cell assay (ELISA); assay type: cell-based; details: HEK-293 dox-inducible FGFR2, 1 hour compound, 30 ng/ml FGF-acidic
Summary of the method: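 Doxycycline-induced (1 μg/ml) cells preincubated with compound (1:3 serial dilutions, top final 5 μM) for 1 h at 37 °C, then stimulated with 30 ng/ml FGF-acidic for 5 min. Lysates assayed by ELISA capturing total FGFR2 and detecting phosphotyrosine (OD 450 nm). POC relative to no-compound and control-compound wells; IC50 from 4-parameter logistic fit.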

[2] = target: HEK-293 cells transfected with dox-inducible human wild type FGFR1 (Homo sapiens (Human), UniProt P11362); assay: FGFR1 pFGFR cell assay (ELISA); assay type: cell-based; details: HEK-293 dox-inducible FGFR1, 1 hour compound
Chain of HEK-293 cells transfected with dox-inducible human wild type FGFR1 (P11362 22-822): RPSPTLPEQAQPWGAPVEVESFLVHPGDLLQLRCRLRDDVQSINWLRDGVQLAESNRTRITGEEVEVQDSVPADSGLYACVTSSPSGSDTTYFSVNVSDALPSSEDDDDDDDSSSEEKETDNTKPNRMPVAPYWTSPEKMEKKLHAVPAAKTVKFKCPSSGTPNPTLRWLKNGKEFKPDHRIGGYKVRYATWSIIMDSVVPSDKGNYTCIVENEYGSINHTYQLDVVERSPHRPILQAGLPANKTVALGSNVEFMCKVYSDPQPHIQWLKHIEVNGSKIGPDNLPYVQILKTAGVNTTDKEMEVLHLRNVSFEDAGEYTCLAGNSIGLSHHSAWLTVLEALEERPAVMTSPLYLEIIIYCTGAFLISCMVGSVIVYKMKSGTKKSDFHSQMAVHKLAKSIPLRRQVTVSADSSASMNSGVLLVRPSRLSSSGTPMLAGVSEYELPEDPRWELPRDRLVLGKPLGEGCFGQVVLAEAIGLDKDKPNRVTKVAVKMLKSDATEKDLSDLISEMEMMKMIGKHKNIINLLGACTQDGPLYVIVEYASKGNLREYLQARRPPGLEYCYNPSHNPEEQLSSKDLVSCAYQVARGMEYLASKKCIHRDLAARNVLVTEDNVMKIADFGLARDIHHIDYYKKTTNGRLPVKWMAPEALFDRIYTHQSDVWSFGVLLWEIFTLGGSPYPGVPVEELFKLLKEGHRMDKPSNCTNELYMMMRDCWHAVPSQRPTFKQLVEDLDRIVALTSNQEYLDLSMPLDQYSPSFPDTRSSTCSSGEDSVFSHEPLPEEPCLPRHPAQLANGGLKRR
Description: FGFR1 pFGFR Cell Assay: • HEK-293 cells transfected with dox-inducible human wild type FGFR1 (SEQ ID NO: 1) were plated in a collagen or poly-D-lysine coated 96 well flat bottom plates at 4×10^5 cells/well in complete DMEM medium containing 10% FBS and 1 μg/ml doxycycline and allowed to attach for 24 h at 37° C., 5% CO2. Cells were treated with compound using 1:3 serial dilutions with a maximum final concentration of 5 μM. Compound was incubated on cells for 1 hour at 37° C., 5% CO2. Medium was removed, and cells were lysed with lysis buffer containing phosphatase and protease inhibitors. Phospho FGFR1 was measured by ELISA (R&D Systems cat. no. DYC5079 or Cell Signaling Technology cat. no. 12909). The ELISA captures total FGFR1 and detects total phospho tyrosine. Optical density was measured for each well using a Versamax reader at a wavelength of 450 nm. 100 POC was determined using no test compounds and 0 POC was determined using a control compound. The POC values were fit to a 4-parameter logistic curve as a function of the concentration of the compound, and the IC50 value is the point where the curve crosses 50 POC.

Chain of HEK-293 cells transfected with dox-inducible human wild type FGFR2 (P21802 22-821): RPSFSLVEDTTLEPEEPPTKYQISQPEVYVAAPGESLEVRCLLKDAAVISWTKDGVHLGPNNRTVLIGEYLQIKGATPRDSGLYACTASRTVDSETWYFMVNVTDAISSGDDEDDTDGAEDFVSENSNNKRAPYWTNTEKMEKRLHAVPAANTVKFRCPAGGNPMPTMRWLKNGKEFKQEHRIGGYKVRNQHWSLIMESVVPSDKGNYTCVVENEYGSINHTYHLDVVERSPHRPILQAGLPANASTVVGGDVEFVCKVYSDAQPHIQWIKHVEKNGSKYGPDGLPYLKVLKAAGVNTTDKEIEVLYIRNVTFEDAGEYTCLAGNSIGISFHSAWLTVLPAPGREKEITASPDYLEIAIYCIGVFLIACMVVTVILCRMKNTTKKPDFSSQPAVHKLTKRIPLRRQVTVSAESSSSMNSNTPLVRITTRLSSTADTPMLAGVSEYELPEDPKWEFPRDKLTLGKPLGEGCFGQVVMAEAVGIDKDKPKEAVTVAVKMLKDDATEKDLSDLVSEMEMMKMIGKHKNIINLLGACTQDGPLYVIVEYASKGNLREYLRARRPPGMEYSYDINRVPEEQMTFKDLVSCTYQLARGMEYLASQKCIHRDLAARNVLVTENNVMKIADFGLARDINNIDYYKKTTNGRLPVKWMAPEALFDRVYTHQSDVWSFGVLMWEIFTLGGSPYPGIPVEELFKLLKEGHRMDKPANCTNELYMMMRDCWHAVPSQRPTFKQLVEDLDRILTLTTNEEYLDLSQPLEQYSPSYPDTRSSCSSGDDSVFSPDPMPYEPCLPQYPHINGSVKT

| IC50 [1] [nM] | IC50 [2] [nM] | Compound |
| --- | --- | --- |
| 143 |  | C=CC(=O)N1CC(OC)(C(=O)N2CCC(n3ncc(-c4cc(OC)c5c(C#N)cnn5c4)c3C)CC2)C1 [Example 88, 6-(1-(1-(1-acryloyl-3-methoxyazetidine-3-carbonyl)piperidin-4-yl)-5-methyl-1H-pyrazol-4-yl)-4-methoxypyrazolo[1,5-a]pyridine-3-carbonitrile] |
| 108 |  | C=CC(=O)N1CC(CN2CCC(n3ncc(-c4cc(OC)c5c(C#N)cnn5c4)c3C)CC2)(OC)C1 [Example 91, 6-(1-(1-((1-acryloyl-3-methoxyazetidin-3-yl)methyl)piperidin-4-yl)-5-methyl-1H-pyrazol-4-yl)-4-methoxypyrazolo[1,5-a]pyridine-3-carbonitrile] |
| 160 |  | C=CS(=O)(=O)Nc1cccc(C(=O)N2CCC(n3cc(-c4cc(OC)c5c(C#N)cnn5c4)cn3)CC2)c1 [Example 188, N-(3-(4-(4-(3-cyano-4-methoxypyrazolo[1,5-a]pyridin-6-yl)-1H-pyrazol-1-yl)piperidine-1-carbonyl)phenyl)eth-enesulfonamide] |
| 109 |  | C=CC(=O)N1CC(C)(CN2CCC(n3ncc(-c4cc(OC)c5c(C#N)cnn5c4)c3C)CC2)C1 [Example 90, 6-(1-(1-((1-acryloyl-3-methylazetidin-3-yl)methyl)piperidin-4-yl)-5-methyl-1H-pyrazol-4-yl)-4-methoxypyrazolo[1,5-a]pyridine-3-carbonitrile] |
| 96 |  | C=CC(=O)N1CC(CN2CCC(n3ncc(-c4cc(OC)c5c(C#N)cnn5c4)c3C)CC2)C1 [Example 89, 6-(1-(1-((1-acryloylazetidin-3-yl)methyl)piperidin-4-yl)-5-methyl-1H-pyrazol-4-yl)-4-methoxypyrazolo[1,5-a]pyridine-3-carbonitrile] |
|  | 123 | C=CC(=O)Nc1ccc(C(=O)N2CCC(n3cc(-c4cc(OC)c5c(C#N)cnn5c4)cn3)CC2)cc1 [Example 177, N-(4-(4-(4-(3-cyano-4-methoxypyrazolo[1,5-a]pyridin-6-yl)-1H-pyrazol-1-yl)piperidine-1-carbonyl)phenyl)acrylamide] |
| 79 |  | C=CC(=O)N1CC(C(=O)N2CCC(n3cc(-c4cc(OC)c5c(C#N)cnn5c4)cn3)CC2)C1(C)C (centres unmarked) [Example 43, 6-(1-(1-(1-acryloyl-2,2-dimethylazetidine-3-carbonyl)piperidin-4-yl)-1H-pyrazol-4-yl)-4-methoxypyrazolo[1,5-a]pyridine-3-carbonitrile] |
| 61 |  | C=CC(=O)N1CC(F)(C(=O)N2CCC(n3ncc(-c4cc(OC)c5c(C#N)cnn5c4)c3C)CC2)C1 [Example 85, 6-(1-(1-(1-acryloyl-3-fluoroazetidine-3-carbonyl)piperidin-4-yl)-5-methyl-1H-pyrazol-4-yl)-4-methoxypyrazolo[1,5-a]pyridine-3-carbonitrile] |

| Compound | IC50 [1] [nM] | IC50 [2] [nM] |
| --- | --- | --- |
| C=CC(=O)N1CC(C(=O)N2C3CC2CN(c2ccc(-c4cc(OC)c5c(C#N)cnn5c4)cn2)C3)C1 [Example 52, 6-(6-(6-(1-acryloylazetidine-3-carbonyl)-3,6-diazabicyclo[3.1.1]heptan-3-yl)pyridin-3-yl)-4-methoxypyrazolo[1,5-a]pyridine-3-carbonitrile] | 766 |  |
| C=CC(=O)N1CC(C(=O)N2C3CCC2CN(c2ccc(-c4cc(OC)c5c(C#N)cnn5c4)cn2)C3)C1 [Example 50, 6-(6-(8-(1-acryloylazetidine-3-carbonyl)-3,8-diazabicyclo[3.2.1]octan-3-yl)pyridin-3-yl)-4-methoxypyrazolo[1,5-a]pyridine-3-carbonitrile] | 178 |  |
| C=CC(=O)N1CC(C(=O)N2CC3CCC(C2)N3c2ccc(-c3cc(OC)c4c(C#N)cnn4c3)cn2)C1 [Example 51, 6-(6-(3-(1-acryloylazetidine-3-carbonyl)-3,8-diazabicyclo[3.2.1]octan-8-yl)pyridin-3-yl)-4-methoxypyrazolo[1,5-a]pyridine-3-carbonitrile] | 433 |  |
